Test [1] addresses Voltage-gated inwardly rectifying potassium channel KCNH2 (Homo sapiens, UniProt Q12809). Format: functional. To be noted: read-out: AC50.
Test [2] addresses Adenosine receptor A2a (Homo sapiens, UniProt P29274).
In test [3] the target is T1, Alpha-1A adrenergic receptor (Homo sapiens, UniProt P35348).
T1 sequence (P35348 whole entry): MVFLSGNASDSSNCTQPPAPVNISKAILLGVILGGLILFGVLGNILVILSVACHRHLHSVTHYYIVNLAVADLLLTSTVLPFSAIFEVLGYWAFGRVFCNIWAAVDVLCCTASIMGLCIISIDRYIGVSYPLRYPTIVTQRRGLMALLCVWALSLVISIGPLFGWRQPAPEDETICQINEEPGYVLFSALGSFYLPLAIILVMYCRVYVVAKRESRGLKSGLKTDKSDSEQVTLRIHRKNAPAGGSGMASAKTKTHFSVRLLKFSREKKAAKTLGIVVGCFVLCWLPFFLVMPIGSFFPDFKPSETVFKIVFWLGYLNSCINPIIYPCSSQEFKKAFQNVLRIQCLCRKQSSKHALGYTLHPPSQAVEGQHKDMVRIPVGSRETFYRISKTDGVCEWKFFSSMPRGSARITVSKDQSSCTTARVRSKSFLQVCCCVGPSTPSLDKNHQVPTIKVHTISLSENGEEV
Format: functional, cell-based.

The target of test [4] is T2, Estrogen receptor (Homo sapiens, UniProt P03372).
T2 sequence (P03372 whole entry): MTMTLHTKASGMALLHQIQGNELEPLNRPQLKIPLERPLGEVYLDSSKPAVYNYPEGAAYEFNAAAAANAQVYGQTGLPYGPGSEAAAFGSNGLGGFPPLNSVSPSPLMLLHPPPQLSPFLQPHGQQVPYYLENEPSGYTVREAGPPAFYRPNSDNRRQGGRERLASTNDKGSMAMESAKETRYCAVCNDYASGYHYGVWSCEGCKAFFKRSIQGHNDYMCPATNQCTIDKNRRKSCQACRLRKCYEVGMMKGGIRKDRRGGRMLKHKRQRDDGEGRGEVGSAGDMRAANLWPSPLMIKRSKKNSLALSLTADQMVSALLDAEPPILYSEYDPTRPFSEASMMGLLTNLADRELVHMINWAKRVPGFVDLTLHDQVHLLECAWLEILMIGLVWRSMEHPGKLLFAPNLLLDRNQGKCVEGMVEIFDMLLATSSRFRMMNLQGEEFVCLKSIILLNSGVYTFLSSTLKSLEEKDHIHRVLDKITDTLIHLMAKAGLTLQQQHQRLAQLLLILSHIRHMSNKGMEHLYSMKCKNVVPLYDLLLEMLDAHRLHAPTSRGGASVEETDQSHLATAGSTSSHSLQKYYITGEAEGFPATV

The target of test [5] is Sodium-dependent noradrenaline transporter (Homo sapiens, UniProt P23975).
Test [6] concerns the target Gamma-aminobutyric acid receptor subunit alpha-1 (Rattus norvegicus, UniProt P62813).
For test [7], the target named is T3, Equilibrative nucleoside transporter 1 (Homo sapiens, UniProt Q99808).
T3 sequence (Q99808 whole entry): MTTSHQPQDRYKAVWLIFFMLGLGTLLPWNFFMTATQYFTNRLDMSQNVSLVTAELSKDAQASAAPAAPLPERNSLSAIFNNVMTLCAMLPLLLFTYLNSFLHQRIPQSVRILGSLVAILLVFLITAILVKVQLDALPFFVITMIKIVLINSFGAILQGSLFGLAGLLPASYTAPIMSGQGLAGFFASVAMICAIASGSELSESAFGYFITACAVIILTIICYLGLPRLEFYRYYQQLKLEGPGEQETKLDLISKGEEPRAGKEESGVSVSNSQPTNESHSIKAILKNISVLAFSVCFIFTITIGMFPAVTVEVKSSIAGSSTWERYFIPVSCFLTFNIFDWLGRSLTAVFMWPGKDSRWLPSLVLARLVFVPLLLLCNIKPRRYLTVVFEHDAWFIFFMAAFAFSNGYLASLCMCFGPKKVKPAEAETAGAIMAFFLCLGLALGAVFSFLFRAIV

For test [8], the target named is T4, 5-hydroxytryptamine receptor 3A (Homo sapiens, UniProt P46098).
T4 sequence (P46098 whole entry): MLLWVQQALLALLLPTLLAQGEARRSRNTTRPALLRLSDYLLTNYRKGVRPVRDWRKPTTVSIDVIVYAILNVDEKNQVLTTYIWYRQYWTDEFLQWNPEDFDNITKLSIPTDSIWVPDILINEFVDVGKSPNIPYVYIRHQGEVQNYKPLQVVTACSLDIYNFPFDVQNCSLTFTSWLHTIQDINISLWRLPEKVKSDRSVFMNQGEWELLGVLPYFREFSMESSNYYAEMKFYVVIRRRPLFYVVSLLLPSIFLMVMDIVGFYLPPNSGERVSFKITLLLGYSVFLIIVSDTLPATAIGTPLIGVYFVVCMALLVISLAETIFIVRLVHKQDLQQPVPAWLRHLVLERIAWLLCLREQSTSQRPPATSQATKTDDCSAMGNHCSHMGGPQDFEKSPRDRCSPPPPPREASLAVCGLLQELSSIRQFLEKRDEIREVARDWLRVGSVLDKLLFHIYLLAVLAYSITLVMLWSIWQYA
Format: functional.

For test [9], the target named is T5, Type-1 angiotensin II receptor (Homo sapiens, UniProt P30556).
T5 sequence (P30556 whole entry): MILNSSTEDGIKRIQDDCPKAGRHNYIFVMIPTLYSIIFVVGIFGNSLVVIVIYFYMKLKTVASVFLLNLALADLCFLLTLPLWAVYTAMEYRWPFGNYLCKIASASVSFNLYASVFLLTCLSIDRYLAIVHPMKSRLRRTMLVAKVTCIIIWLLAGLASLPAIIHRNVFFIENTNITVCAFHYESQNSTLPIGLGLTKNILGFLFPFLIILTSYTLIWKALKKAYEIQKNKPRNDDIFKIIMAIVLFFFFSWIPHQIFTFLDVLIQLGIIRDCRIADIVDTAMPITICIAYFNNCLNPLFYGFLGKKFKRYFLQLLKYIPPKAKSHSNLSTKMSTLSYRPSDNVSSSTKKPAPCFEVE
Further: assay procedure not described here.

Sodium-dependent noradrenaline transporter, sequence (P23975 whole entry): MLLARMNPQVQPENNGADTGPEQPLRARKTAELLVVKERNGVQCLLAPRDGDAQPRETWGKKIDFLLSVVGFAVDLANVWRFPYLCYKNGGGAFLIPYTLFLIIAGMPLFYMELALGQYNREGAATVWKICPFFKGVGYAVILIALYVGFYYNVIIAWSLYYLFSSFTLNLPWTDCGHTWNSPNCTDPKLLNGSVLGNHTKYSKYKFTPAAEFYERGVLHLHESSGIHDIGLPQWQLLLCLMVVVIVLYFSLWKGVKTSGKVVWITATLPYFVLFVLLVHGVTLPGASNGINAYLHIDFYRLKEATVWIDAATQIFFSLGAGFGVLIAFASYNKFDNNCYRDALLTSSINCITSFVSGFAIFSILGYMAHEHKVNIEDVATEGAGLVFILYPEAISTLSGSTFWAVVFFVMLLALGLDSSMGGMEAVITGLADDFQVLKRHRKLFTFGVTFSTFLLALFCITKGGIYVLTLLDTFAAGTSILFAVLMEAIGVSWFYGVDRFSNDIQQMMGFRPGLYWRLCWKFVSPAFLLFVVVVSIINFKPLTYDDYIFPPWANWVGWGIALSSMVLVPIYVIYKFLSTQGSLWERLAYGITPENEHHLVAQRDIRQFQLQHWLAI
Adenosine receptor A2a, sequence (P29274 whole entry): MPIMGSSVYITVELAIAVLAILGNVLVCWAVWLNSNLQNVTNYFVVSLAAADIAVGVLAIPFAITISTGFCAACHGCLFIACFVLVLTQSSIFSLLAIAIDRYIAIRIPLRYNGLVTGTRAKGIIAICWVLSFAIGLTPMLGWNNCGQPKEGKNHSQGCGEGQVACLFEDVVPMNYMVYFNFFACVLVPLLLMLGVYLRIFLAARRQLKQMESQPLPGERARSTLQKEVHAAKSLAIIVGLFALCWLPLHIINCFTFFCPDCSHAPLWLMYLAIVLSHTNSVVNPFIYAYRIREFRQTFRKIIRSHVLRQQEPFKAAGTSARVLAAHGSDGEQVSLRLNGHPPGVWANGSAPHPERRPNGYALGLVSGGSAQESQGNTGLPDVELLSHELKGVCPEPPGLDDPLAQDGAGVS
Gamma-aminobutyric acid receptor subunit alpha-1, sequence (P62813 whole entry): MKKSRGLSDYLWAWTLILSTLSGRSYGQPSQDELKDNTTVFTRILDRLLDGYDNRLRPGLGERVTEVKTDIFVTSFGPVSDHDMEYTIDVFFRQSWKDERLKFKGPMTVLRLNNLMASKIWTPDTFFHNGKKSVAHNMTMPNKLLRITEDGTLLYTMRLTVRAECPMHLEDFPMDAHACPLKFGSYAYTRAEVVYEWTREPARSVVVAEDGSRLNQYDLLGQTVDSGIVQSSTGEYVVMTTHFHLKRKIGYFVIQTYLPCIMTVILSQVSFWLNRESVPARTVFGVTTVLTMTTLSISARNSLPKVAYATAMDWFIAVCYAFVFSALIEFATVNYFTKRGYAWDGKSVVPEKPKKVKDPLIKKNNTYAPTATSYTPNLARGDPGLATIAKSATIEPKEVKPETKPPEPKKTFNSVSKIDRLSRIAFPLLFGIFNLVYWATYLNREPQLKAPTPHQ
Voltage-gated inwardly rectifying potassium channel KCNH2, sequence (Q12809 whole entry): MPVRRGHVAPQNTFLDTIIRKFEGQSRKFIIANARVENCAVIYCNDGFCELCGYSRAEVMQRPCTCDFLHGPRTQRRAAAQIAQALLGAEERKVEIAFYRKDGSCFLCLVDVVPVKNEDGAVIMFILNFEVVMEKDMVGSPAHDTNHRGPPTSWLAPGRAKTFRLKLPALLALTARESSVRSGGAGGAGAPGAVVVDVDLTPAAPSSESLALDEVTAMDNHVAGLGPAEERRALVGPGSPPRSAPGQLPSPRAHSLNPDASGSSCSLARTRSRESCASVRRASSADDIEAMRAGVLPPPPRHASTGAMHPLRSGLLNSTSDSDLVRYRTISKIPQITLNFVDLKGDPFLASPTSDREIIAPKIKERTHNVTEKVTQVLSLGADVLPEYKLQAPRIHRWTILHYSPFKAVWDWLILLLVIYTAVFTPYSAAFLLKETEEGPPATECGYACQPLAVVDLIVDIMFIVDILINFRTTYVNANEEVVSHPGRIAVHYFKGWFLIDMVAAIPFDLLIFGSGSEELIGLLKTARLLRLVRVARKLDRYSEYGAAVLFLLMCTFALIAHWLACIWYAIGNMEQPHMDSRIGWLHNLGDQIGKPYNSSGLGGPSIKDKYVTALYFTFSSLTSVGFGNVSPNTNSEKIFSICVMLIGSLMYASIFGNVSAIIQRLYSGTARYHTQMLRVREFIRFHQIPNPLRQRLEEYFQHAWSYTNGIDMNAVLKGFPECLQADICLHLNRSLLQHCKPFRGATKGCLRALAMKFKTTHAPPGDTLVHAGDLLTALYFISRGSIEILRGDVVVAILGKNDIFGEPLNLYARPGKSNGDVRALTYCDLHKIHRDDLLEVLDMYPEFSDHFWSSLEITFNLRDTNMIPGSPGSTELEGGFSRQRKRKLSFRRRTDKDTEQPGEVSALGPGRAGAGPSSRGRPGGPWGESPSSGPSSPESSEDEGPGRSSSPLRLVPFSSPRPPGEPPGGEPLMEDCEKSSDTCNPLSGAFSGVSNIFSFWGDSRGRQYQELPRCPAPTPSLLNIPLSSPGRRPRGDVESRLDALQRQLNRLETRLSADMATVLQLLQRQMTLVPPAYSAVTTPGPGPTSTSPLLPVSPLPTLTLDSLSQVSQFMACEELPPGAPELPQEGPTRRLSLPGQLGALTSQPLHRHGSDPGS

Take `C=CC(N)CCC(=O)O` (stereo not drawn) [VIGABATRIN]: the half-maximal activity concentration (AC50) in [1] is above 30 µM; in test [2], above 10 µM; in test [3], above 30 µM; in test [4] it was above 10 µM; in [5], 21.7 µM; in test [6], above 10 µM. Further, the concentration at half-maximal activity (AC50) in test [7] is above 30 µM; in [8], above 30 µM; in [9], above 10 µM.

Consider `N#C[C@@H]1CCCN1C(=O)CNC12CC3CC(CC(O)(C3)C1)C2` [VILDAGLIPTIN], for which the AC50 in test [1], in [2], in [3], in test [4], in test [5] and in test [6] was above 30 µM in each case. The AC50 in test [7], in [8] and in test [9] was above 30 µM each time.

The record behind these values is ChEMBL document CHEMBL5291721, “A preclinical secondary pharmacology resource illuminates target-adverse drug reaction associations of marketed drugs” (Nat Commun, 2023).
